Source: patent US8722849B2, “Polypeptides” (Novo Nordisk A/S, priority 2011, dated 2014)
pEC50: −log10 of the molar value. ≈ marks a conversion by molar mass, not a printed value. Read-outs that look alike come from different tables or passages of the source. Starred links: 1 amine or outer side, 2 acyl side, 3 side chain; linkers in the order of their positions; H or OH if unused. Positions of bridges follow the written chain, without caps; N, C: chain ends. Residues, ends and D or L forms follow the SMILES beside them. *: point of attachment. C20 diacid = O=C(O)CCCCCCCCCCCCCCCCCCC(=O)*; γGlu = O=C(O)[C@H](CCC(=O)[*:2])N[*:1]

Key:
food intake = assay: Assay (I) efficacy testing on appetite (food intake), ad libitum fed rat model; format: in vivo, Sprague Dawley (SD) rats
Summary of the method: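 Sprague Dawley rats (200–250 g), single-housed under reversed light cycle with free food and water, got one ip, po or sc dose of 0.01–3 mg/kg just before lights-off. Individual food intake recorded hourly for 7 h, then at 24 h and sometimes 48 h; groups of 5–8, Grubbs outliers excluded.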

[1] = Assay (III) ThT fibrillation assay for physical stability; format: physicochemical; conditions: ThT fibrillation assay
Summary of the method: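 Freshly prepared formulations, pH-adjusted, with 1 μM ThT; four or eight replicates incubated at 37 °C under 960 rpm orbital shaking. Fluorescence (ex 444/em 485 nm) read every 20 min; […]. Peptide concentration measured by RP-HPLC before and after the run.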

[2] = Assay (IV) determination of solubility; format: physicochemical
Summary of the method: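 Solubility is measured across pH 3.0–8.0 by mixing a ~500 nmol/ml aqueous polypeptide stock 1:1 with 100 mM glycylglycine or bistrispropane buffers. Samples stand 18 hours at room temperature, then are centrifuged and the soluble concentration is determined by HPLC.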

[3] = biological target: T1, human calcitonin receptor (Homo sapiens, UniProt P30988); assay: Assay (II)a functional CRE-luciferase assay, human calcitonin receptor; format: cell-based; conditions: Table 7; human calcitonin (CTa) receptor
T1 construct: expressed in transfected cells; host or cells: BHK570
T1 sequence (P30988 25-474): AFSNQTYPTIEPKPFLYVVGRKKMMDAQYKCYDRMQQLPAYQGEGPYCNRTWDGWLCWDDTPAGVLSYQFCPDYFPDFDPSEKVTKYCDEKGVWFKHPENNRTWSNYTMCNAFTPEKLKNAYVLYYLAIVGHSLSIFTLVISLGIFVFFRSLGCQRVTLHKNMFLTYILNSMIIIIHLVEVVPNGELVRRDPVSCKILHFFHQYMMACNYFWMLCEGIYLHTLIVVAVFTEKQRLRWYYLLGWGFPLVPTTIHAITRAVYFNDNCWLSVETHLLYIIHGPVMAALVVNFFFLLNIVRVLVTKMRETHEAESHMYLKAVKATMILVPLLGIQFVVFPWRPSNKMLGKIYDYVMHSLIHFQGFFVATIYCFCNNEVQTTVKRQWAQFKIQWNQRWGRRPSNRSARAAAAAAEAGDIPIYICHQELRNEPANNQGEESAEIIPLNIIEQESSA

[4] = biological target: T2, human amylin receptor (amylin 3(a) receptor: human calcitonin receptor + RAMP-3) (Homo sapiens, UniProt O60896+P30988); assay: Assay (II)a functional CRE-luciferase assay, human amylin receptor; format: cell-based; conditions: Table 2; BHK amylin 3(a)-receptor/CRE-luc cells
T2 construct: expressed in transfected cells; host or cells: BHK570
T2 sequence (P30988 25-474): T1 sequence (P30988 25-474)
T2 sequence (O60896 24-148 partner): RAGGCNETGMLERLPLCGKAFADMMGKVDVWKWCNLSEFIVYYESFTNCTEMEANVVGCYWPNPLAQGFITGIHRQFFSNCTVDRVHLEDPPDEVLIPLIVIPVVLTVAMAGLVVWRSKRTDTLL

Row | ThT pH 4.0 lag time (h) [1] [h] | ThT pH 4.0 lag time [1] [h] | solubility at 18 h ([2]; bistrispropane buffer, pH 6, pH 6.0, read-out: Solubility pH 6.0) [µM] | solubility at 18 h ([2]; bistrispropane buffer, pH 6.5, pH 6.5, read-out: Solubility pH 6.5) [µM] | solubility at 18 h ([2]; bistrispropane buffer, pH 7, pH 7.0, 18 hours at room temperature, Table 3, read-out: Solubility pH 7.0) [µM] | solubility at 18 h ([2]; bistrispropane buffer, pH 7, pH 7.0, read-out: Solubility pH 7.0) [µM] | solubility at 18 h ([2]; bistrispropane buffer, pH 7.5, pH 7.5, read-out: Solubility pH 7.5) [µM] | solubility at 18 h ([2]; bistrispropane buffer, pH 8, pH 8.0, read-out: Solubility pH 8.0) [µM] | solubility at 18 h ([2]; glycylglycine buffer, pH 3, pH 3.0, read-out: Solubility pH 3.0) [µM] | solubility at 18 h ([2]; glycylglycine buffer, pH 4, pH 4.0, 18 hours at room temperature, Table 2, read-out: Solubility pH 4.0) [µM] | solubility at 18 h ([2]; glycylglycine buffer, pH 4, pH 4.0, read-out: Solubility pH 4.0) [µM] | solubility at 18 h ([2]; glycylglycine buffer, pH 5, pH 5.0, read-out: Solubility pH 5.0) [µM] | pEC50 [3] | pEC50 [4] | SMILES | Food intake reduction 0-24 h 3 nmol/kg (%) (food intake; 0-24 h) | Food intake reduction 24-48 h 3 nmol/kg (%) (food intake; 24-48 h) | Food intake reduction 0-24 h 30 nmol/kg (%) (food intake; 0-24 h, 30 nmol/kg) | Food intake reduction 24-48 h 30 nmol/kg (%) (food intake; 24-48 h, 30 nmol/kg)
1 | 4.7 | – | – | – | – | – | – | – | – | – | – | – | – | – | CC[C@H](C)[C@H](NC(=O)[C@@H]1CCCN1C(=O)CNC(=O)[C@H](Cc1ccccc1)NC(=O)[C@H](CC(N)=O)NC(=O)[C@H](CC(N)=O)NC(=O)[C@H](CO)NC(=O)[C@H](CO)NC(=O)[C@H](CCCNC(=N)N)NC(=O)[C@@H](NC(=O)[C@H](CC(C)C)NC(=O)[C@H](Cc1ccccc1)NC(=O)[C@H](CCC(=O)O)NC(=O)[C@H](C)NC(=O)[C@H](CC(C)C)NC(=O)[C@H](CCCNC(=N)N)NC(=O)[C@H](CCC(N)=O)NC(=O)[C@@H](NC(=O)[C@H](C)NC(=O)[C@@H]1CSSC[C@H](NC(=O)[C@H](Cc2c[nH]cn2)NC(=O)CC[C@H](NC(=O)CCCCCCCCCCCCCCCCCCC(=O)O)C(=O)O)C(=O)N[C@@H](CC(N)=O)C(=O)N[C@@H]([C@@H](C)O)C(=O)N[C@@H](C)C(=O)N[C@@H]([C@@H](C)O)C(=O)N1)[C@@H](C)O)C(C)C)C(=O)N[C@@H](CC(C)C)C(=O)N1CCC[C@H]1C(=O)N1CCC[C@H]1C(=O)N[C@H](C(=O)N[C@@H](CC(N)=O)C(=O)N[C@H](C(=O)NCC(=O)N[C@@H](CO)C(=O)N[C@@H](CC(N)=O)C(=O)N[C@H](C(=O)N[C@@H](Cc1ccc(O)cc1)C(N)=O)[C@@H](C)O)C(C)C)[C@@H](C)O [Example 15, N-alpha-[(S)-4-Carboxy-4-(19-carboxynonadecanoylamino)butyryl]-[His1,Glu14,Arg18]-pramlintide] ({C20 diacid-γGlu}-HCNTATCATQRLAEFLVRSSNNFGPILPPTNVGSNTY-NH2; disulfide 2-7 (inferred); C-terminus assumed) | 56 | 59 | – | –
2 | >45 | >45 | – | – | – | – | – | – | – | – | – | – | – | – | CC[C@H](C)[C@H](NC(=O)[C@@H]1CCCN1C(=O)CNC(=O)[C@H](Cc1ccccc1)NC(=O)[C@H](CC(N)=O)NC(=O)[C@H](CC(N)=O)NC(=O)[C@H](CO)NC(=O)[C@H](CO)NC(=O)[C@H](Cc1c[nH]cn1)NC(=O)[C@H](CCCNC(=N)N)NC(=O)[C@H](CC(C)C)NC(=O)[C@H](Cc1ccccc1)NC(=O)[C@H](CCC(=O)O)NC(=O)[C@H](C)NC(=O)[C@H](CC(C)C)NC(=O)[C@H](CCCNC(=N)N)NC(=O)[C@H](CCC(N)=O)NC(=O)[C@@H](NC(=O)[C@H](C)NC(=O)[C@@H]1CSSC[C@H](NC(=O)[C@H](Cc2c[nH]cn2)NC(=O)[C@H](Cc2c[nH]cn2)NC(=O)[C@H](Cc2c[nH]cn2)NC(=O)CC[C@H](NC(=O)CCCCCCCCCCCCCCCCCCC(=O)O)C(=O)O)C(=O)N[C@@H](CC(N)=O)C(=O)N[C@@H]([C@@H](C)O)C(=O)N[C@@H](C)C(=O)N[C@@H]([C@@H](C)O)C(=O)N1)[C@@H](C)O)C(=O)N[C@@H](CC(C)C)C(=O)N1CCC[C@H]1C(=O)N1CCC[C@H]1C(=O)N[C@H](C(=O)N[C@@H](CC(N)=O)C(=O)N[C@H](C(=O)NCC(=O)N[C@@H](CO)C(=O)N[C@@H](CC(N)=O)C(=O)N[C@H](C(=O)N[C@@H](Cc1ccc(O)cc1)C(N)=O)[C@@H](C)O)C(C)C)[C@@H](C)O [Example 12, N-alpha-[(S)-4-Carboxy-4-(19-carboxynonadecanoylamino)butyryl]-His-His-[His1,Glu14,Arg17]-pramlintide] ({C20 diacid-γGlu}-HHHCNTATCATQRLAEFLRHSSNNFGPILPPTNVGSNTY-NH2; disulfide 4-9 (inferred); C-terminus assumed) | – | – | 70 | 45
3 | – | – | > 200 | > 200 | > 200 | > 200 | > 200 | > 200 | > 200 | > 200 | > 200 | 68 (≈ 289 µg/mL) | 9.65 | 9.79 | CC[C@H](C)[C@H](NC(=O)[C@@H]1CCCN1C(=O)CNC(=O)[C@H](Cc1ccccc1)NC(=O)[C@H](CC(N)=O)NC(=O)[C@H](CC(N)=O)NC(=O)[C@H](CO)NC(=O)[C@H](CO)NC(=O)[C@H](CCCNC(=N)N)NC(=O)[C@H](Cc1c[nH]cn1)NC(=O)[C@H](CC(C)C)NC(=O)[C@H](Cc1ccccc1)NC(=O)[C@H](CCC(=O)O)NC(=O)[C@H](C)NC(=O)[C@H](CC(C)C)NC(=O)[C@H](CCCNC(=N)N)NC(=O)[C@H](CCC(N)=O)NC(=O)[C@@H](NC(=O)[C@H](C)NC(=O)[C@@H]1CSSC[C@H](NC(=O)CC[C@H](NC(=O)CCCCCCCCCCCCCCCCCCC(=O)O)C(=O)O)C(=O)NCC(=O)N[C@@H]([C@@H](C)O)C(=O)N[C@@H](C)C(=O)N[C@@H]([C@@H](C)O)C(=O)N1)[C@@H](C)O)C(=O)N[C@@H](CC(C)C)C(=O)N1CCC[C@H]1C(=O)N1CCC[C@H]1C(=O)N[C@H](C(=O)N[C@@H](CCC(=O)O)C(=O)N[C@H](C(=O)NCC(=O)N[C@@H](CO)C(=O)NCC(=O)N[C@H](C(=O)N[C@@H](Cc1ccc(O)cc1)C(N)=O)[C@@H](C)O)C(C)C)[C@@H](C)O [Example 3, N-alpha-[(S)-4-Carboxy-4-(19-carboxynonadecanoylamino)butyryl]-[des1,Gly3,Glu14,His17,Arg18,Glu31,Gly35]-pramlintide] ({C20 diacid-γGlu}-CGTATCATQRLAEFLHRSSNNFGPILPPTEVGSGTY-NH2; disulfide 1-6 (inferred)) | 37 | 32 | – | –
